According to article PMC4717575, “Characterization of a cold-active and salt tolerant esterase identified by functional screening of Arctic metagenomic libraries” (BMC Biochemistry, 2016):

Test system: T1, Lip3
T1 construct: catalytic triad Ser150, Asp207, His267; primers encode N-terminal MNNYIID and C-terminal CLKSLL before the His tag
Test: p-nitrophenol release at […] nm, Lineweaver-Burk
Assay type: biochemical, uncultured bacterium
Conditions: 0.1 M Tris-HCl pH 8.0, 35 °C, 3 % acetonitrile

| SMILES | K M (M.10^-3) |
| --- | --- |
| CCCCCCCCCC(=O)Oc1ccc([N+](=O)[O-])cc1 [pNP-decanoate] | 1.03 ± 0.12 M∙10^−3 |
| CCCCCCCC(=O)Oc1ccc([N+](=O)[O-])cc1 [pNP-octanoate] | 0.36 ± 0.04 M∙10^−3 |
| CCCCC(=O)Oc1ccc([N+](=O)[O-])cc1 [pNP-pentanoate] | 1.52 ± 0.20 M∙10^−3 |

Other lines, results leading:

| K M (M.10^-3) | SMILES |
| --- | --- |
| 2.38 ± 0.56 M∙10^−3 | CC(=O)Oc1ccc([N+](=O)[O-])cc1 [pNP-acetate] |
| 1.05 ± 0.16 M∙10^−3 | CCCC(=O)Oc1ccc([N+](=O)[O-])cc1 [pNP-butanoate] |
